Data: US4962109A, “Insecticidally and acaricidally active pyrimidine esters and intermediates therefor” (Imperial Chemical Industries PLC, priority 1985, dated 1990)

What was measured:
Type in all cases: in vivo
[1] = tested on: Musca domestica (houseflies - adults); test: Knockdown test on houseflies - adults (MD/KD), Cotton wool/sugar; conditions: 500 ppm, 4 hours, read-out: MD/KD grading of knockdown
Method in brief: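 Adult houseflies exposed to the compound at 500, 250 or 100 ppm in acetone/water with 0.01% wetting agent, on a cotton wool/sugar medium. Knockdown and mortality assessed, graded A (80-100%), B (50-79%) or C (<50%).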

[2] = tested on: Tetranychus urticae (spider mites - adult); test: Contact test on spider mites - adult (TUa), French bean leaf, mortality; conditions: 72 h, 500 ppm, contact, 3 days, read-out: TUa grading of mortality
Method in brief: (§1)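 Product dissolved in acetone, diluted in water with 0.01% wetting agent to 500, 250 or 100 ppm; pests and/or host medium (plant or foodstuff) treated. Mortality or knockdown assessed 1–3 days later, graded A (80–100%), B (50–79%) or C (<50%).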

[3] = tested on: Tetranychus urticae (spider mites - ova); test: Contact test on spider mites - ova (TUe), French bean leaf, mortality; conditions: 144 h, 500 ppm, contact, 6 days, read-out: TUe grading of mortality
Method in brief: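 Graded read-out: A 80-100%, B 50-79%, C below 50% mortality or knockdown, assessed usually 1-3 days post-treatment. Liquid preparations at 500, 250 or 100 ppm by weight, from acetone solution diluted in water with 0.01% wetting agent, applied to pests and/or their host plant or food medium.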

[4] = tested on: Nilaparvata lugens (brown plant hopper); test: Contact test on brown plant hopper (NL), Rice plant, mortality; conditions: 72 h, 3 days, read-out: NL grading of mortality
Method: (§2) The activity of the Product was determined using a variety of insect pests. The Product was used in the form of liquid preparations containing 500, 250 or 100 parts per million (ppm) by weight of the Product. The preparations were made by dissolving the Product in acetone and diluting the solutions with water containing 0.01% by weight of a wetting agent sold under the trade name "LISSAPOL" NX until the liquid preparations contained the required concentration of the Product. "Lissapol" is a Registered Trade Mark.
(§3) The test procedure adopted with regard to each pest was basically the same and comprised supporting a number of the pests on a medium which was usually a host plant or a foodstuff on which the pests feed, and treating either or both the pests and the medium with the preparations. The mortality of the pests was then assessed at periods usually varying from one to three days after the treatment.
(§4) The results of the tests are given in Table III for each of the Products, at the rate in parts per million given in the second column as a grading of mortality designated as A, B or C wherein A indicates 80-100% mortality or knockdown, B indicates 50-79% mortality or knockdown and C indicates less than 50% mortality or knockdown.

Myzus persicae (aphids) = test: Contact test on aphids (MP), Chinese Cabbage leaf, mortality; conditions: 72 h, 500 ppm, contact, 3 days, read-out: MP grading of mortality
Method in brief: as §1

[5] = tested on: Spodoptera exigua (lesser army worm - larvae); test: Residual test on lesser army worm larvae (SP), Cotton leaf, mortality; conditions: 48 h, 500 ppm, residual, * test duration of 3 days, read-out: SP grading of mortality
Method in brief: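 Product dissolved in acetone and diluted in water with 0.01% wetting agent to 500, 250 or 100 ppm; larvae and/or cotton leaf host treated. Mortality or knockdown scored one to three days later and graded A (80-100%), B (50-79%) or C (<50%).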

[6] = tested on: Blattella germanica (cockroach nymphs); test: Residual test on cockroach nymphs (BG/R), Plastic pot, mortality; conditions: 72 h, 3 days, read-out: BG/R grading of mortality
Method: as §2, §3, §4
BG/R Blattella germanica

[7] = tested on: Heliothis virescens (tobacco budworm - larvae); test: Residual test on tobacco budworm larvae (HV), Cotton leaf, mortality; conditions: 48 h, read-out: HV grading of mortality
Method in brief: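 Product in acetone diluted with water containing 0.01% Lissapol NX, at 500, 250 or 100 ppm; pests and/or host medium (here cotton leaf) treated. Mortality scored one to three days later, graded A (80-100%), B (50-79%), C (<50%).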

[8] = tested on: Musca domestica (houseflies - adults); test: Contact test on houseflies - adults (MD), Cotton wool/sugar, mortality; conditions: 24 h, 500 ppm, contact, ** test duration of 1 day, read-out: MD grading of mortality
Method in brief: as §1

[9] = tested on: Diabrotica balteata (rootworm larvae); test: Residual test on rootworm larvae (DB), Filter paper/maize seed, mortality; conditions: 48 h, 500 ppm, residual, * test duration of 3 days, read-out: DB grading of mortality
Method in brief: as §1

insect and acarine pests = test: Biological screening of enantiomers, insecticidal and acaricidal activity; conditions: (-) versus (+) enantiomer

Q: What does the source list for `C=CCc1c(F)c(F)c(COC(=O)C(c2cnc(-c3ccccc3)nc2)C(C)C)c(F)c1F` (racemic) [Compound 113, 4-(prop-2-en-1-yl)-2,3,5,6-tetrafluorobenzyl (RS)-2-[2-phenylpyrimidin-5-yl)-3-methylbutanoate]?
A: pest or weed control at 500 ppm [1]: 80 to 100%; mortality at 500 ppm [2]: < 50%; mortality at 500 ppm [3]: < 50%; mortality at 500 ppm [4]: < 50%; mortality at 500 ppm (Myzus persicae (aphids)): 50 to 79%; mortality at 500 ppm [5]: < 50%; mortality at 500 ppm [6]: < 50%; mortality at 500 ppm [7]: < 50%; mortality at 500 ppm [8]: 80 to 100%; mortality at 500 ppm [9]: < 50%

Q: With `C=CCc1c(F)c(F)c(COC(=O)C(c2cnc(N(C)C)nc2)C(C)C)c(F)c1F` (racemic) [Compound 115, 2,3,5,6-tetrafluoro-4-(prop-2-en-1-yl)benzyl (RS)-2-[2-(N,N-dimethylamino)pyrimidin-5-yl]-3-methylbutanoate] as the compound, how does the pest or weed control at 500 ppm [1] read?
A: < 50%

Q: What about the mortality at 500 ppm [2] of the same compound?
A: 80 to 100%

Q: And the mortality at 500 ppm [3]?
A: 80 to 100%

Q: And the mortality at 500 ppm [4]?
A: < 50%

Q: And the mortality at 500 ppm (Myzus persicae (aphids))?
A: 80 to 100%

Q: And the mortality at 500 ppm [5]?
A: 80 to 100%

Q: And the mortality at 500 ppm [6]?
A: 80 to 100%

Q: And the mortality at 500 ppm [7]?
A: 80 to 100%

Q: And the mortality at 500 ppm [8]?
A: 80 to 100%

Q: What about the mortality at 500 ppm [9] of the same compound?
A: < 50%

Q: How did the pest or weed control at 500 ppm [1] turn out when `COCc1c(F)c(F)c(COC(=O)C(c2cnc(C(F)(F)F)nc2)C(C)C)c(F)c1F` (racemic) [Compound 116, 2,3,5,6-tetrafluoro-4-(methoxymethyl)benzyl (RS)-2-(2-trifluoromethylpyrimidin-5-yl)-3-methylbutanoate] was run?
A: 80 to 100%

Q: What about the mortality at 500 ppm [2] of the same compound?
A: 80 to 100%

Q: What about the mortality at 500 ppm [3] of the same compound?
A: 80 to 100%

Q: What about the mortality at 500 ppm [4] of the same compound?
A: 80 to 100%

Q: What about the mortality at 500 ppm (Myzus persicae (aphids)) of the same compound?
A: 80 to 100%

Q: And the mortality at 500 ppm [5]?
A: 80 to 100%

Q: And the mortality at 500 ppm [6]?
A: 80 to 100%

Q: What about the mortality at 500 ppm [7] of the same compound?
A: 80 to 100%

Q: What about the mortality at 500 ppm [8] of the same compound?
A: 80 to 100%

Q: What about the mortality at 500 ppm [9] of the same compound?
A: 80 to 100%

Q: Which results are given for `C=CCc1c(F)c(F)c(COC(=O)C(c2cnc(C(Cl)(Cl)Cl)nc2)C(C)C)c(F)c1F` (racemic) [Compound 117, 2,3,5,6-tetrafluoro-4-(prop-2-en-1-yl)benzyl (RS)-2-(2-trichloromethylpyrimidin-5-yl)-3-methylbutanoate]?
A: pest or weed control at 500 ppm [1]: 80 to 100%; mortality at 500 ppm [2]: 80 to 100%; mortality at 500 ppm [3]: 80 to 100%; mortality at 500 ppm [4]: 80 to 100%; mortality at 500 ppm (Myzus persicae (aphids)): 80 to 100%; mortality at 500 ppm [5]: 80 to 100%; mortality at 500 ppm [6]: 80 to 100%; mortality at 500 ppm [7]: 80 to 100%; mortality at 500 ppm [8]: 80 to 100%; mortality at 500 ppm [9]: 50 to 79%

Q: With `CC[C@@H](C(=O)O[C@@H](C#N)c1ccc(F)c(Oc2ccccc2)c1)c1cnc(C(C)(C)C)nc1` (racemic) [Compound 121, (RS)-α-cyano-4-fluoro-3-phenoxybenzyl (RS)-2-[2-(1,1-dimethylethyl)pyrimidin-5-yl]butanoate] as the compound, how does the pest or weed control at 500 ppm [1] read?
A: 50 to 79%

Q: And the mortality at 500 ppm [2]?
A: 80 to 100%

Q: What about the mortality at 500 ppm [3] of the same compound?
A: < 50%

Q: What about the mortality at 500 ppm [4] of the same compound?
A: < 50%

Q: What about the mortality at 500 ppm (Myzus persicae (aphids)) of the same compound?
A: 80 to 100%

Q: What about the mortality at 500 ppm [5] of the same compound?
A: 80 to 100%

Q: What about the mortality at 500 ppm [6] of the same compound?
A: < 50%

Q: And the mortality at 500 ppm [7]?
A: 80 to 100%

Q: And the mortality at 500 ppm [8]?
A: 80 to 100%

Q: And the mortality at 500 ppm [9]?
A: 80 to 100%

Q: What does the source list for `CCC(C(=O)OCc1c(F)c(F)c(C)c(F)c1F)c1cnc(C(C)(C)C)nc1` (racemic) [Compound 122, 2,3,5,6-tetrafluoro-4-methyl (RS)-2-[2-(1,1-dimethylethyl)pyrimidin-5-yl]butanoate]?
A: pest or weed control at 500 ppm [1]: 80 to 100%; mortality at 500 ppm [2]: 80 to 100%; mortality at 500 ppm [3]: < 50%; mortality at 500 ppm [4]: < 50%; mortality at 500 ppm (Myzus persicae (aphids)): 80 to 100%; mortality at 500 ppm [5]: 80 to 100%; mortality at 500 ppm [6]: < 50%; mortality at 500 ppm [7]: 80 to 100%; mortality at 500 ppm [8]: 80 to 100%; mortality at 500 ppm [9]: 50 to 79%

Q: What does the source list for `C=CCc1c(F)c(F)c(COC(=O)C(CC)c2cnc(C(C)(C)C)nc2)c(F)c1F` (racemic) [Compound 123, 2,3,5,6-tetrafluoro-4-(prop-2-en-1-yl)benzyl (RS)-2-[2-(1,1-dimethylethyl)pyrimidin-5-yl]butanoate]?
A: pest or weed control at 500 ppm [1]: 80 to 100%; mortality at 500 ppm [2]: 80 to 100%; mortality at 500 ppm [3]: 80 to 100%; mortality at 500 ppm [4]: 80 to 100%; mortality at 500 ppm (Myzus persicae (aphids)): 80 to 100%; mortality at 500 ppm [5]: 80 to 100%; mortality at 500 ppm [6]: 50 to 79%; mortality at 500 ppm [7]: 80 to 100%; mortality at 500 ppm [8]: 80 to 100%; mortality at 500 ppm [9]: < 50%

Q: `COCc1c(F)c(F)c(COC(=O)C(c2cnc(C(C)(C)C)nc2)C(C)(C)C)c(F)c1F` (single isomer, unassigned; enantiomer 4) [(-)-enantiomer, 4-(methoxymethyl)-2,3,5,6-tetrafluorobenzyl 2-[2-(1,1-dimethylethyl)pyrimidin-5-yl]-3,3-dimethylbutanoate] was tested. Which “insecticidal and acaricidal activity of enantiomers” value (insect and acarine pests) did it give?
A: substantially greater insecticidal and acaricidal activity than the (+)-enantiomer
